For one series, the species on record is Oryctolagus cuniculus. The series is described as follows: Myocardial infarction (MI) size was calculated as a percentage of the infarct area to the total area of the left ventricle of male chinchilla rabbits. It counts as functional, Heart left ventricle. More on the design: concentration or dose not given beside the values.
Series [1] can be described thus: Lethal dose to produce acute toxicity was evaluated in white crossbred mice weighing 20-25 g. Conditions: mouse, in vivo.

By LD50 is commonly meant the dose at which mortality reaches 50%.

With `N[C@@H](CCC(=O)N[C@@H](CSC1=C(SC[C@H](NC(=O)CC[C@H](N)C(=O)O)C(=O)NCC(=O)O)C(=O)c2c(O)c(O)c(O)c(O)c2C1=O)C(=O)NCC(=O)O)C(=O)O`, the Activity in the series listed under Oryctolagus cuniculus is recorded as 12.37%. This compound registered an LD50 in series [1] of 1210 mg/kg. For the compound `COc1ccc(CCN(C)CCCC(C#N)(c2ccc(OC)c(OC)c2)C(C)C)cc1OC` (stereo not drawn) [VERAPAMIL], in the series listed under Oryctolagus cuniculus, the Activity was 6.51%. As to `Cc1c(O)c(O)c2c(c1O)C(=O)C(SCCO)=C(SCCO)C2=O`, the Activity in the series filed under Oryctolagus cuniculus is 9.97%. In series [1], this compound came in with an LD50 of 150 mg/kg. On the same counts, the results for `Cc1c(O)c(O)c2c(c1O)C(=O)C(SC[C@H](NC(=O)CC[C@H](N)C(=O)O)C(=O)NCC(=O)O)=C(SC[C@H](NC(=O)CC[C@H](N)C(=O)O)C(=O)NCC(=O)O)C2=O` are 7.15% and 1350 mg/kg. Taken in the same sequence, the figures for `CCc1c(O)c(O)c2c(c1O)C(=O)C(SC[C@H](NC(=O)CC[C@H](N)C(=O)O)C(=O)NCC(=O)O)=C(SC[C@H](NC(=O)CC[C@H](N)C(=O)O)C(=O)NCC(=O)O)C2=O` were 8.35% and 1480 mg/kg.

On to `CCCC1=C(O)C(=O)c2c(O)c(O)c(O)c(O)c2C1=O`, for which the Activity in the series listed under Oryctolagus cuniculus is listed as 10.08%. The LD50 in series [1] amounted to 80 mg/kg. On to `O=C(O)CCC1=C(O)C(=O)c2c(O)c(O)c(O)c(O)c2C1=O`, for which, in the series filed under Oryctolagus cuniculus, the Activity is 7.9%. The same compound had an LD50 in series [1] of 95 mg/kg. On the same counts, the results for `CC(C)(C)C1=CC(=O)c2c(O)c(O)c(O)c(O)c2C1=O` are 10.18% and 170 mg/kg. Taken in the same sequence, the figures for `CCC1=C(O)C(=O)c2c(O)c(O)c(O)c(O)c2C1=O` [ECHINOCHROME A] were 7.76% and 87 mg/kg. For the compound `O=[N+]([O-])OCC(CO[N+](=O)[O-])O[N+](=O)[O-]` [NITROGLYCERIN], the Activity in the series listed under Oryctolagus cuniculus was 15.23%.

These data come from ChEMBL document CHEMBL1131646, “Synthesis of some hydroxynaphthazarins and their cardioprotective effects under ischemia-reperfusion in vivo” (Bioorg Med Chem Lett, 1998).
